{"source": "patent US20250230193A1", "about": "“CYCLIC COMPOUND HAVING SELECTIVE KRAS INHIBITORY EFFECT ON HRAS AND NRAS” (CHUGAI SEIYAKU KABUSHIKI KAISHA, priority 2022, published 2025)", "key": {"[1]": {"target": "GDP-bound NRAS wild-type protein (Homo sapiens, UniProt P01111)", "sequence (P01111 whole entry)": "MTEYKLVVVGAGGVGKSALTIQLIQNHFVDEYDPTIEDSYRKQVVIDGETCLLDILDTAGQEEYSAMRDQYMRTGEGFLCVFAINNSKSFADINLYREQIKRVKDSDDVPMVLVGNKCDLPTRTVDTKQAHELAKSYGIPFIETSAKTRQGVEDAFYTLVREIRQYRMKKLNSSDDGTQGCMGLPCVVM", "assay": "Binding to NRAS by surface plasmon resonance (SPR), Single Cycle Kinetics", "conditions": "for NRAS/KRAS (ratio of KD value with respect to NRAS to KD value with respect to KRAS): GDP-bound NRAS wild-type vs GDP-bound KRAS wild-type"}, "[2]": {"target": "GDP-bound HRAS wild-type protein (Homo sapiens, UniProt P01112)", "sequence (P01112 whole entry)": "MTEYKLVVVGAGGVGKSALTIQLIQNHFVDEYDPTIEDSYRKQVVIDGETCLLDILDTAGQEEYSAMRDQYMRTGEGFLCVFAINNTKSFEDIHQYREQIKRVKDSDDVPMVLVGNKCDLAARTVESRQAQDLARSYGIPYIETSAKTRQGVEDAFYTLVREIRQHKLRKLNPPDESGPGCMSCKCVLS", "assay": "Binding to HRAS by surface plasmon resonance (SPR), Single Cycle Kinetics", "conditions": "for HRAS/KRAS (ratio of KD value with respect to HRAS to KD value with respect to KRAS): GDP-bound HRAS wild-type vs GDP-bound KRAS wild-type"}}, "note": "Where a SMILES comes first, the peptide text is derived from it. Bridges are numbered along the chain shown (N, C = ends). [ ]: non-standard residue; d: D form. The star is where a group is joined. hPhe(3,5-F2-4-CF3) = N[C@@H](CCc1cc(F)c(C(F)(F)F)c(F)c1)C(=O)O; NPrPhe(4-CF3) = CCCN[C@@H](Cc1ccc(C(F)(F)F)cc1)C(=O)O; NMeGly(cPent) = CN[C@H](C(=O)O)C1CCCC1; NMeD = CN[C@@H](CC(=O)O)C(=O)O; NMeL = CN[C@@H](CC(C)C)C(=O)O; αMeL = CC(C)C[C@](C)(N)C(=O)O; Morpholide = C1CN(*)CCO1; Sar = CNCC(=O)O", "data": [{"smiles": "CCCN1C(=O)CN(C)C(=O)CN(C)C(=O)[C@H]([C@@H](C)CC)NC(=O)[C@H](CC(C)C)N(C)C(=O)C[C@@H](C(=O)N2CCOCC2)N(C)C(=O)[C@H](C2CCCC2)N(C)C(=O)[C@](C)(CC(C)C)NC(=O)[C@@H]2CCCN2C(=O)[C@H](CCc2cc(F)c(C(F)(F)F)c(F)c2)NC(=O)CN(C)C(=O)[C@@H]1Cc1ccc(C(F)(F)F)cc1", "note": "[PP0759] ([NMeL]I[Sar][Sar][NPrPhe(4-CF3)][Sar][hPhe(3,5-F2-4-CF3)]P[αMeL][NMeGly(cPent)][NMeD]-Morpholide; lactam N-11)", "values": [{"measurement": "NRAS/KRAS (ratio of KD value with respect to GDP-bound NRAS wild-type protein to KD value with respect to KRAS)", "setting": "[1]; SPR", "result": "B (a compound having 3 or more and less than 10 is denoted as B)"}, {"measurement": "HRAS/KRAS (ratio of KD value with respect to GDP-bound HRAS wild-type protein to KD value with respect to KRAS)", "setting": "[2]; SPR", "result": "B (a compound having 3 or more and less than 10 is denoted as B)"}]}, {"smiles": "CC[C@H](C)[C@@H]1NC(=O)[C@H](CC)N(C)C(=O)C[C@@H](C(=O)N(C)C)N(C)C(=O)[C@H](C2CCCC2)N(C)C(=O)C2(CCC2)NC(=O)[C@H](COCCC(C)C)N(C)C(=O)[C@H](CCc2cc(F)c(C(F)(F)F)c(F)c2)NC(=O)CN(C)C(=O)[C@H](Cc2ccc(C(F)(F)F)cc2)N2CC/C=C\\C[C@@H](C2=O)N(C)C(=O)CN(C)C1=O", "note": "[PP1148]", "values": [{"measurement": "NRAS/KRAS (ratio of KD value with respect to NRAS to KD value with respect to KRAS)", "setting": "[1]; KD ratio, SPR", "result": "A (a compound having 10 or more and less than 20 is denoted as A)"}, {"measurement": "HRAS/KRAS (ratio of KD value with respect to HRAS to KD value with respect to KRAS)", "setting": "[2]; KD ratio, SPR", "result": "A (a compound having 10 or more and less than 20 is denoted as A)"}]}, {"smiles": "CCC[C@H]1C(=O)N[C@@H]([C@@H](C)CC)C(=O)N(C)CC(=O)N(C)[C@H]2C/C=C\\CCN(C2=O)[C@@H](CC2CCCCC2)C(=O)N(C)CC(=O)N[C@@H](CCc2ccc(C(F)(F)F)c(OC)c2)C(=O)N2C[C@H](OCC)C[C@H]2C(=O)N(C)C2(CCC2)C(=O)N(C)[C@@H](C(CC)CC)C(=O)N(C)[C@H](C(=O)N(C)C)CC(=O)N1C", "note": "[PP2333]", "values": [{"measurement": "NRAS/KRAS (ratio of KD value with respect to NRAS to KD value with respect to KRAS)", "setting": "[1]; SPR", "result": "A (a compound having 10 or more and less than 20 is denoted as A)"}, {"measurement": "HRAS/KRAS (ratio of KD value with respect to HRAS to KD value with respect to KRAS)", "setting": "[2]; SPR", "result": "A (a compound having 10 or more and less than 20 is denoted as A)"}]}, {"smiles": "CC[C@H](C)[C@@H]1NC(=O)[C@H](CC(C)C)N(C)C(=O)C[C@@H](C(=O)N2CCOCC2)N(C)C(=O)[C@H](C2CCCC2)N(C)C(=O)C2(CCCC2)NC(=O)[C@@H]2CCCN2C(=O)[C@H](CCc2cc(F)c(C(F)(F)F)c(F)c2)NC(=O)CN(C)C(=O)[C@H](Cc2ccc(C(F)(F)F)cc2)N2CCCC[C@@H](C2=O)N(C)C(=O)CNC1=O", "note": "[PP0542]", "values": [{"measurement": "NRAS/KRAS (ratio of KD value with respect to GDP-bound NRAS wild-type protein to KD value with respect to KRAS)", "setting": "[1]; SPR", "result": "B (a compound having 3 or more and less than 10 is denoted as B)"}, {"measurement": "HRAS/KRAS (ratio of KD value with respect to GDP-bound HRAS wild-type protein to KD value with respect to KRAS)", "setting": "[2]; SPR", "result": "B (a compound having 3 or more and less than 10 is denoted as B)"}]}, {"smiles": "CCC[C@H]1C(=O)N[C@@H]([C@@H](C)CC)C(=O)N(C)CC(=O)N(C)[C@H]2C/C=C\\CCN(C2=O)[C@@H](Cc2ccc(C(F)(F)F)cc2)C(=O)N(C)CC(=O)N[C@@H](CCc2ccc(CC)c(Cl)c2)C(=O)N2C[C@H](OCC)C[C@H]2C(=O)NC2(CC(C)(C)C2)C(=O)N(C)[C@@H](C(CC)CC)C(=O)N(C)[C@H](C(=O)N(C)C)CC(=O)N1C", "note": "[PP2777]", "values": [{"measurement": "NRAS/KRAS (ratio of KD value with respect to GDP-bound NRAS wild-type protein to KD value with respect to KRAS)", "setting": "[1]; class symbols", "result": "AA (a compound having 20 or more is denoted as AA)"}, {"measurement": "HRAS/KRAS (ratio of KD value with respect to GDP-bound HRAS wild-type protein to KD value with respect to KRAS)", "setting": "[2]; class symbols", "result": "A (a compound having 10 or more and less than 20 is denoted as A)"}]}, {"smiles": "CC[C@H](C)[C@@H]1NC(=O)[C@H](CC(C)C)N(C)C(=O)C[C@@H](C(=O)N(C)C)N(CCC2CCCC2)C(=O)[C@H](C2CCCC2)N(C)C(=O)C2(CCC2)NC(=O)[C@@H]2CC(F)(F)CN2C(=O)[C@H](CCc2ccc(C(F)(F)F)c(Cl)c2)NC(=O)CN(C)C(=O)[C@H](Cc2ccc(F)cc2)N2CCCCC[C@@H](C2=O)N(C)C(=O)CN(C)C1=O", "note": "[PP0977]", "values": [{"measurement": "NRAS/KRAS (ratio of KD value with respect to NRAS to KD value with respect to KRAS)", "setting": "[1]; KD ratio, SPR", "result": "B (a compound having 3 or more and less than 10 is denoted as B)"}, {"measurement": "HRAS/KRAS (ratio of KD value with respect to HRAS to KD value with respect to KRAS)", "setting": "[2]; KD ratio, SPR", "result": "A (a compound having 10 or more and less than 20 is denoted as A)"}]}, {"smiles": "CCO[C@@H]1C[C@H]2C(=O)NC3(CCC3)C(=O)N(C)[C@@H](C3CCCC3)C(=O)N(C)[C@H](C(=O)N(C)C)CC(=O)N(C)[C@@H](CCOC)C(=O)N[C@@H]([C@@H](C)CC)C(=O)N(C)CC(=O)N(C)[C@H]3CCCCCN(C3=O)[C@@H](Cc3ccc(C(F)(F)F)cc3)C(=O)N(C)CC(=O)N[C@@H](CCc3cc(F)c(C(F)(F)F)c(F)c3)C(=O)N2C1", "note": "[PP0675]", "values": [{"measurement": "NRAS/KRAS (ratio of KD value with respect to GDP-bound NRAS wild-type protein to KD value with respect to KRAS)", "setting": "[1]; SPR", "result": "B (a compound having 3 or more and less than 10 is denoted as B)"}, {"measurement": "HRAS/KRAS (ratio of KD value with respect to GDP-bound HRAS wild-type protein to KD value with respect to KRAS)", "setting": "[2]; SPR", "result": "B (a compound having 3 or more and less than 10 is denoted as B)"}]}]}
